A short description of series [1]: in vitro. Particulars: mouse.
Series [2] is classed as in vitro ADME. Particulars: human, microsomes.
Protocol: (§1) Cold ACN, including 100 ng/ml tolbutamide and 100 ng/ml labetalol as internal standard (IS), was used for the stop solution. Compound or control working solution (10 µl per well) was added to all plates (T0, T5, T10, T20, T30, T60, and NCF60), except the matrix blank. Dispensed microsome solution (80 µl per well) was added to every plate by Apricot and the mixture of microsome solution and compound was incubated at 37° C. for approximately 10 min. After prewarming, a dispensed NADPH regenerating system (10 µl per well) was added to every plate by Apricot to start a reaction. The solution was then incubated at 37° C. Stop solution (300 µl per well, 4° C.) was then added to terminate the reaction. The sampling plates were shaken for approximately 10 minutes. The samples were centrifuged at 4,000 rpm. for 20 min at 4° C. While centrifuging, new 8×96-well plates were loaded with 300 µl HPLC water, and then 100 µl supernatant was transferred and mixed for liquid chromatography-tandem mass spectrometry (LC/MS/MS).
The next series can be described thus: Plasma stability, mice. As to conditions: mouse, pH 7.4. It is filed as in vitro ADME.
A further series addresses CYP 2D6 (Homo sapiens, UniProt P10635). The experiment in a line: CYP inhibition assay, 2D6.
For a further series, the target named is CYP 3A4 (Homo sapiens, UniProt P08684). As to the kind of experiment: CYP inhibition assay, 3A4.
CYP 3A4, sequence (P08684 whole entry): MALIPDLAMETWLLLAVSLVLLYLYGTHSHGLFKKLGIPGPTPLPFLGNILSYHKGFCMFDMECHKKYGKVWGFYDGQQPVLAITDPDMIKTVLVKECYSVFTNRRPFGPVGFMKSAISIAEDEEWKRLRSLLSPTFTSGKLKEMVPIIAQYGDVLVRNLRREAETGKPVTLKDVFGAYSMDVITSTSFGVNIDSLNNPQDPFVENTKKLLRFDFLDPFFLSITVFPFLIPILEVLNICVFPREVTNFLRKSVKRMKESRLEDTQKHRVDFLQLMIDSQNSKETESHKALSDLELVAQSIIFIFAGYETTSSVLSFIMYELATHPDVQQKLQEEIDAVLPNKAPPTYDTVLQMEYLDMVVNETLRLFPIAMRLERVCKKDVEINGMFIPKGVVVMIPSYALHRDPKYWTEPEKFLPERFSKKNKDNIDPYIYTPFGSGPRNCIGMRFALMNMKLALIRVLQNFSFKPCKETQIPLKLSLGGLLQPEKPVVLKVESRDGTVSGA
The nature of another series: physchem. As to conditions: water, kinetic from dmso stock.
The target of the next series is T1, CYP 1A2 (Homo sapiens, UniProt P05177).
T1 sequence (P05177 1-516): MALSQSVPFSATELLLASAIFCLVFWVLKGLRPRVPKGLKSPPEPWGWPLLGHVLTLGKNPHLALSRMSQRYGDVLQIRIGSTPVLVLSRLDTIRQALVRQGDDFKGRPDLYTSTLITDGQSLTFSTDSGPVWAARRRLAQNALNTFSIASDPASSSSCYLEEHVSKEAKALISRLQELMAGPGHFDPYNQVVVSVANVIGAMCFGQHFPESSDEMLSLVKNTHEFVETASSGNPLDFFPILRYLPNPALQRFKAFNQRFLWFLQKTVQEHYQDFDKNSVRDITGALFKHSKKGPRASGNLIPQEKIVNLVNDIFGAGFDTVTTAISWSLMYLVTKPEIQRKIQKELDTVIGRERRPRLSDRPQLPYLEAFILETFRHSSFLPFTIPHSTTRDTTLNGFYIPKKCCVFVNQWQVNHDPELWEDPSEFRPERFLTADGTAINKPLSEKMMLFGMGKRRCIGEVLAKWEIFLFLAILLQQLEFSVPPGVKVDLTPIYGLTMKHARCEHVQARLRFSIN
As to the kind of experiment: CYP inhibition assay, 1A2.

The target in a further series is CYP 2C9 (Homo sapiens, UniProt P11712). As to the kind of experiment: biochemical.
CYP 2C9, sequence (P11712 whole entry): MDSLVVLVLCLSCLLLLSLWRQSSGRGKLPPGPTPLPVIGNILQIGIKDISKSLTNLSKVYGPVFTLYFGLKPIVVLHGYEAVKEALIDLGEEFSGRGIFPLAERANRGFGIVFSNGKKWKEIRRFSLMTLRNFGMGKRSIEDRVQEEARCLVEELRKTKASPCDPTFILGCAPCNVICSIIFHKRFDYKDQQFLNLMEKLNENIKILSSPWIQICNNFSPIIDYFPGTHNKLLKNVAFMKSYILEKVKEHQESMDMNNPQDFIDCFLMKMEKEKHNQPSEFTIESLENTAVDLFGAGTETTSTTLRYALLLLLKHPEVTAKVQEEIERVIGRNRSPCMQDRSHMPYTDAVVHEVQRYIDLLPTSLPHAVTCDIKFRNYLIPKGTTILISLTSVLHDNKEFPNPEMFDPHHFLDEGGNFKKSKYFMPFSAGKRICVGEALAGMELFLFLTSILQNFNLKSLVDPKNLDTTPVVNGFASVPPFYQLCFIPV
Series [3] can be described thus: in vitro. As to conditions: human.
A further series can be described thus: Caco-2 permeability. Type of series: in vitro ADME. As to conditions: human, Caco-2, pH 7.4.
The next series addresses CYP 2C19 (Homo sapiens, UniProt P33261). The experiment in a line: CYP inhibition assay, 2C19.
The next series in a line: Plasma stability, human. Type of series: in vitro ADME. As to conditions: pH 7.4.
Series [4] has as its target T2, SARS-CoV-2 M^PRO (Severe acute respiratory syndrome coronavirus 2, UniProt P0DTD1). As to the kind of experiment: biochemical. It is filed as biochemical. As to conditions: In vitro potency data; 30 min pre-incubation, 25 nM M^pro, 25 µM substrate; read-out: IC50.
Series [5] is described as follows: Microsomal stability, mouse liver microsomes. As to conditions: CD-1, mouse. Type of series: in vitro ADME.
Protocol: as §1
Another series in a line: PAMPA permeability assay. It is filed as in vitro ADME. A general note: The PAMPA barrier holds no transporters, so it reflects passive diffusion.
Series [6] is described as follows: in vitro. As to conditions: African green monkey.
The next series concerns SARS-CoV-2. The experiment in a line: In vitro antiviral cell-based assay (live SARS-CoV-2 IFA) in Vero cells. Particulars: Severe acute respiratory syndrome coronavirus 2, MOI ~0.0125, 24 hpi.
In series [7] the target is T2, SARS-CoV-2 M^PRO. As to the kind of experiment: Crystal structure of ligand bound to SARS-CoV-2 M^pro. As to conditions: X-ray, complex with SARS-CoV-2 M^pro.
The nature of series [8]: Cytotoxicity (CC50) in Vero cells. Particulars: African green monkey.

This is an account of results in patent publication US20230174488A1 (priority 2020, published 2023).

Converted amounts (≈) assume the structure as drawn. Where two headings read alike, the source gives them in different places.

CYP 2D6, sequence (P10635 whole entry): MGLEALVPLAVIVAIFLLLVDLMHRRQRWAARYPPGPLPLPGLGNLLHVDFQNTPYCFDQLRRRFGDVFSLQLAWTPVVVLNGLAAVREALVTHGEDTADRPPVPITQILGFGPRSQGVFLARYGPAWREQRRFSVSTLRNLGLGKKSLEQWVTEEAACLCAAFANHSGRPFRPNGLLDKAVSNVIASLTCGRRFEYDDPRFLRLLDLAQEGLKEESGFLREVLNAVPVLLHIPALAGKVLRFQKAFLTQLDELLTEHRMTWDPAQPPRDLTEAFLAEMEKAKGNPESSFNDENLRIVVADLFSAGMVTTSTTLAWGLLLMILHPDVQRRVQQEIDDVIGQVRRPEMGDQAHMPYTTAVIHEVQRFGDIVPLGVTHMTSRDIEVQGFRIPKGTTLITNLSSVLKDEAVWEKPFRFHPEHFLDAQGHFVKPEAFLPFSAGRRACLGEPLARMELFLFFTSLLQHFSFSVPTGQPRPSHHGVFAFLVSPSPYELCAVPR
CYP 2C19, sequence (P33261 whole entry): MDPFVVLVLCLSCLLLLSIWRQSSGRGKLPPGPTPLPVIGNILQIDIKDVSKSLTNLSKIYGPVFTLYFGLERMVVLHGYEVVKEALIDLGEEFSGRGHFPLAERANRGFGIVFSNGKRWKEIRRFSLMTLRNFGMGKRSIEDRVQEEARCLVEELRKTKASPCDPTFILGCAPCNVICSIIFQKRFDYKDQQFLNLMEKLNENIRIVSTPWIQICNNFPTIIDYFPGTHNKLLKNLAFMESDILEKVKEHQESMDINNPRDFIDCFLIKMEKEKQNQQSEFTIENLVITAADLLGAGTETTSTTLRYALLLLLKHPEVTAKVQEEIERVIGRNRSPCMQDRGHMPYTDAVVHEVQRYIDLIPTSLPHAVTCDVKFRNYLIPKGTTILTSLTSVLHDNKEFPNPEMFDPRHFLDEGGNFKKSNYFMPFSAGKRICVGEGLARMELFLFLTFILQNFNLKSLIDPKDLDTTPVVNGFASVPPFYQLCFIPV
Protocol for CYP 1A2: (§2) The following reagents/reactants were used in the assay: water was purified by ELGA Lab purification systems, buffer solution: PB (100 mM), MgCl2 (33 mM), organic solvents were AR or HPLC grade, CYP substrates: phenacetin (10 µM, 25 µL, 1A2), diclofenac (5 µM, 25 µL, 2C9), S-mephenytoin (30 µM, 75 µL, 2C19), dextromethorphan (5 µM, 12,5, 2D6), and midazolam (2 µM, 10 µL, 3A4), stock solutions were prepared in MeOH (20, 10, 20, 20, and 10 mM, respectively). Positive controls: α-naphthoflavone, sulfaphenazole, (+)-N-3-benzylnirvanol, quinidine, and ketoconazole, final concentration was 3 µM in MeOH (90 µL), stock solutions were prepared in DMSO (3 mM for all the inhibitors). Test compounds were evaluated using five conc. points at the range of 15-5,000 µM. […] Main procedure: working solution (100×) of the test compound and standard inhibitors were prepared, microsomes were pulled out of the -80° C. freezer to thaw on ice, labeled the date and put it back to the freezer immediately after use. Substrates (20 µL) and PB (20 µL) were added to corresponding wells and Blank wells, respectively. […] HLM working solution (158 µL) was added to all wells of the incubation plate. Plate was pre-warmed for about 10 min at 37° C. in a water bath, then NADPH (20 µL) was added to all incubation wells. CYPs were mixed and incubated for 10 min at 37° C. in a water bath. The reaction was terminated at the time point by adding a 400 µL cold stop solution (200 ng/mL tolbutamide and labetalol in ACN). Samples were centrifuged at 4000 rpm for 20 minutes to precipitate protein. Supernatant (200 µL) was transferred to 100 µL HPLC water and shaken for 10 min, then samples were subjected for LC/MS/MS analysis. XL fit was used to plot the percent of vehicle control vs the test compound concentrations, and for non-linear regression analysis of the data. IC50 values were determined using 3- or 4-parameter logistic equations.
Protocol for CYP 2C19: as §2
Protocol for CYP 2C9: as §2
Protocol for CYP 2D6: as §2
Protocol for CYP 3A4: as §2
Protocol for Caco-2 permeability: Medium was refreshed every 4 \~5 days until the 21st to 28th day for confluent cell monolayer formation. The transport buffer was HBSS with 10 mM HEPES at pH=7.40±0.05. […] Final DMSO concentration was adjusted to less than 1%. The plate was incubated for 2 h in the CO2 incubator at 37±1° C., with 5% CO2 at saturated humidity without shaking. All the samples were then mixed with acetonitrile containing internal standard and centrifuged at 3200 xg for 10 min. For nadolol and metoprolol, 100 µL supernatant solution was diluted with 300 µL distilled water for LC-MS/MS analysis. For digoxin and test compounds, 100 µL supernatant solution was diluted with 100 µL distilled water for LC-MS/MS analysis. Concentrations of test and control compounds in starting solution, donor solution, and receiver solution were quantified by LC-MS/MS methodologies, using peak area ratio of analyte/internal standard. After transport assay, lucifer yellow rejection assay was applied to determine the Caco-2 cell monolayer integrity. The apparent permeability coefficient Papp (cm/s) was calculated using the equation:
where d/Cr/6t is the cumulative concentration of compound in the receiver chamber as a function of time (µM/s); Vr is the solution volume in the receiver chamber (0.075 mL on the apical side, 0.25 mL on the basolateral side); A is the surface area for the transport, i.e. 0.0804 cm^2 for the area of the monolayer; C0 is the initial concentration in the donor chamber (µM).
The efflux ratio was calculated using the equation:
where Vd is the volume in the donor chambers (0.075 mL on the apical side, 0.25 mL on the basolateral side); Cd and Cr are the final concentrations of the transport compound in donor and receiver chambers, respectively.
Protocol for PAMPA permeability assay: 2.6 g KH2PO4 and 18.5 g K3PHO4×3H2O were dissolved in 1000 mL of ultra-pure water, mixed thoroughly. The pH was adjusted to 7.40 ± 0.05, using either 1 M sodium hydroxide or 1 M hydrochloric acid. 0.2 mM working solution was prepared by diluting 10 mM stock solution with DMSO. 10 µM donor solution (5% DMSO) was prepared by diluting 20 µL of working solution with 380 µL PBS. 150 µL of 10 µM donor solutions to each well of the donor plate, whose PVDF membrane was precoated with 5 µL of 1% lecithin/dodecane mixture. Duplicates were prepared. 300 µL of PBS was added to each well of the PTFE acceptor plate. The donor plate and acceptor plate were combined together and incubated for 4 h at room temperature with shaking at 300 rpm. […] Preparation of acceptor sample: the plate was removed from the incubator. 270 µL solution was transferred from each acceptor well and mixed with 130 µL ACN (containing internal standard) as acceptor sample. […] Acceptor samples and donor samples were all analyzed by LC-MS/MS.
Protocol for Plasma stability, human: (§3) Propantheline bromide was used as a reference compound in this assay. The pooled frozen plasma was thawed in a water bath at 37° C. prior to experiment. Plasma was centrifuged at 4000 rpm for 5 min and the clots were removed if any. The pH will be adjusted to 7.4 ± 0.1 if required.
(§4) Preparation of compounds: 1 mM intermediate solution was prepared by diluting 10 µL of the stock solution with 90 µL DMSO; 1 mM intermediate of positive control Propantheline was prepared by diluting 10 µL of the stock solution with 90 µL ultrapure water. For test compounds, 100 µM dosing solution was prepared by diluting 10 µL of the intermediate solution (1 mM) with 90 µL DMSO. […] 98 µL of blank plasma was spiked with 2 µL of dosing solution (100 µM) to achieve 2 µM of the final concentration in duplicate and samples were Incubated at 37° C. in a water bath. […] Centrifuged sample plates at 4,000 rpm for 10 min. An aliquot of supernatant (50 µL) was transferred from each well and mixed with 100 µL ultra-pure water. The samples were shaken at 800 rpm for about 10 min before submitting to LC-MS/MS analysis. The % remaining of test compound after incubation in plasma was calculated using following equation:
(§5) where PAR is the peak area ratio of analyte versus internal standard (IS).
Protocol for Plasma stability, mice: as §3, §4, §5

Broadly, the microsomal CLint is a measure of how fast metabolising enzymes remove a compound, apart from limits set by blood flow. Broadly, the half-life is the time in which the quantity being followed falls by half. As usually defined, the IC50 is the concentration needed to halve the response being measured. Broadly, the kinetic solubility is solubility judged after dilution from a stock solution rather than from solid. A word on the Papp A→B: it is the apparent permeability from the apical to the basolateral side of a cell layer. In general, efflux ratio refers to the permeability from basolateral to apical divided by that in the opposite direction, in the common usage. Turning to `CC(C(=O)NC1CCC(F)(F)CC1)(c1cncnc1)N(C(=O)CCl)c1ccc(-c2ccno2)cc1` (single isomer, unassigned) [INSCoV-601P(1A), 2-(2-Chloro-N-(4-(isoxazol-5-yl)phenyl)acetamido)-N-(4,4-difluorocyclohexyl)-2-(pyrimidin-5-yl)propanamide], the recovery was 2.8% in “in vitro [1]” and 1.3% in the series “in vitro [3]”. Also, the microsomal CLint in [2] was determined as 66 µL/min/mg; in series [5] it was 102 µL/min/mg. Further, the half-life at 2 µM stood at 13.1 min in the series “Plasma stability, mice” and 16.3 min in the series “Plasma stability, human”. In addition, the IC50 against CYP 2D6 was 6.12 µM; against CYP 3A4, 3.62 µM; against CYP 1A2 it was greater than 50 µM; at CYP 2C9 it was greater than 50 µM; on CYP 2C19, greater than 50 µM; at SARS-CoV-2 M^PRO [4] it was 0.14 µM. For the same compound, the solubility (kinetic) in “physchem” is 142 µM (≈ 71.6 µg/mL). Further, in the series “Caco-2 permeability”, the Papp A→B at 2 h, 2 µM was less than 0.48 ×10⁻⁶ cm/s. Moreover, the efflux ratio at 2 h, 2 µM in the series “Caco-2 permeability” is greater than 0.489. In “PAMPA permeability assay” (pH 7.4), the Papp at 4 h, 10 µM came to 0.626 ×10⁻⁶ cm/s.

What is called EC50 is the concentration giving half of the maximal effect. For the compound `N#Cc1cc(OC(F)(F)F)ccc1N(C(=O)CCl)C(C(=O)NC1CCCCC1)c1cccnc1` (centres unmarked) [INSCoV-517], in “in vitro [6]”, the CC50 at 24 h is greater than 50 µM. Moreover, the IC50 at SARS-CoV-2 M^PRO [4] came out at 0.24 µM. Further, the half-maximal effective concentration (EC50) in the series on SARS-CoV-2 was found to be 3.22 µM.

Regarding `O=C(NC1CCC(F)(F)CC1)[C@@H](c1cnccn1)N(C(=O)CCl)c1ccc(-c2ccns2)cc1` [INSCoV-601I(l)], on SARS-CoV-2 M^PRO [4], the concentration for half-maximal inhibition (IC50) was 0.05 µM. The “Binding mode in crystal structure” value at SARS-CoV-2 M^PRO [7] was “covalently bound to Cys145 residue of SARS-CoV-2 M^Pro”. This compound yielded a concentration giving a half-maximal response (EC50) in the series on SARS-CoV-2 of 14.1 µM.

Turning to `O=C(NC1CCC(F)(F)CC1)C(c1cnccn1)N(C(=O)CCl)c1ccc(-c2ccns2)cc1` (centres unmarked) [INSCoV-601I, 2-Chloro-N-(2-((4,4-difluorocyclohexyl)amino)-2-oxo-1-(pyrazin-2-yl)ethyl)-N-(4-(isothiazol-5-yl)phenyl)acetamide], at SARS-CoV-2 M^PRO [4], the half-inhibitory concentration (IC50) came to 0.062 µM. In addition, a half-maximal response in the series with SARS-CoV-2 (EC50) required 11.1 µM.

Take `CC(C(=O)NC1CCC(F)(F)CC1)(c1cnccn1)N(C(=O)CCl)c1ccc(-c2ccns2)cc1` (centres unmarked) [INSCoV-601N, 2-(2-Chloro-N-(4-(isothiazol-5-yl)phenyl)acetamido)-N-(4,4-difluorocyclohexyl)-2-(pyrazin-2-yl)propanamide]: the recovery in the series “in vitro [1]” is 0.1%; in “in vitro [3]” it was 0.2%. Also, the microsomal CLint worked out at 169 µL/min/mg in series [2] and 531 µL/min/mg in series [5]. For the same compound, the half-life at 2 µM came to 21.1 min in “Plasma stability, mice” and 32.6 min in the series “Plasma stability, human”. The 50% inhibitory concentration (IC50) at CYP 2D6 was 0.706 µM; against CYP 3A4 it was 0.218 µM; against CYP 1A2, 24.9 µM; against CYP 2C9 it was 3.25 µM; against CYP 2C19, 5.65 µM; at SARS-CoV-2 M^PRO [4] it was 0.12 µM. The kinetic solubility in “physchem” was less than 1.56 µM. Also, in the series “Caco-2 permeability” (A to B, 2.00 µM, pH 7.40, read-out: Caco-2, Mean Papp,, A to B), the Papp A→B at 2 h, 2 µM was less than 0.0434 ×10⁻⁶ cm/s. Besides, in “PAMPA permeability assay” (pH 7.4, pH 7.40, 4 h, read-out: PAMPA, Mean Pe), the Papp at 4 h, 10 µM was found to be 15.5 ×10⁻⁶ cm/s.

`Cc1cccc(C)c1OCC(=O)N[C@@H](Cc1ccccc1)[C@@H](O)C[C@H](Cc1ccccc1)NC(=O)[C@H](C(C)C)N1CCCNC1=O` [Lopinavir, lopinavir, reference compound]: the EC50 in the series with SARS-CoV-2 worked out at 13.9 µM. Besides, the CC50 at 24 h in [8] was greater than 50 µM.
